From patent EP0541617B1, “1,4-DISUBSTITUTED PIPERAZINES” (NOVO NORDISK A/S, priority 1990, dated 1992)

How the values were obtained:
[1] = system: Male NMRI mice; experiment: Test 2: increase of motility of mice after intravenous administration (photocell crossings); format: in vivo; settings: ED50, i.v., lowest ED50 value determined at a 20 min interval during the 360 min test period
Method: The compounds were also tested for their ability to increase the motility of mice following intravenous administration using the method outlined below.
Male NMRI mice are used (20 ± 2 g). The animals are housed 20-30 per cage under constant temperature (20 ± 1°C) and relative humidity (40-60%). The animals are brought into the experimental room in the afternoon, the day before they undergo testing.
The experimentally-naive, uninjected mice are acclimatized by being placed in a plexiglass box (WLH: 20 x 20 x 38 cm), four per box, for a 120 min period, and then injected with the test compound whereafter they are replaced in the plexiglass box.
The plexiglass box is equipped with a frame of photocells (spaced equidistantly) which are situated so as to detect locomotor behaviour of the animals (1 cm above the floor). The photocell chamber is housed in an sound-insulated, dimly-lit, ventilated chest. As a measure of exploratory behaviour, the number of photocell crossings in a 360 min period is detected using a minicomputer. Testing is made between 7:00 and 17.00 h.
Drugs are injected i.v. simultaneously with start of testing; N = 4/dose; 4-5 doses of test drug is given in a volume of 10 ml/kg. […]

[2] = target: T1, DA-uptake complex (Rattus norvegicus, UniProt P23977); experiment: Test 1: inhibition of 3H-GBR 12935 binding in a striatal membrane preparation
T1 construct: in a striatal membrane preparation; from tissue; host or cells: striatum (membrane preparation)
T1 sequence (P23977 whole entry, one chain of several): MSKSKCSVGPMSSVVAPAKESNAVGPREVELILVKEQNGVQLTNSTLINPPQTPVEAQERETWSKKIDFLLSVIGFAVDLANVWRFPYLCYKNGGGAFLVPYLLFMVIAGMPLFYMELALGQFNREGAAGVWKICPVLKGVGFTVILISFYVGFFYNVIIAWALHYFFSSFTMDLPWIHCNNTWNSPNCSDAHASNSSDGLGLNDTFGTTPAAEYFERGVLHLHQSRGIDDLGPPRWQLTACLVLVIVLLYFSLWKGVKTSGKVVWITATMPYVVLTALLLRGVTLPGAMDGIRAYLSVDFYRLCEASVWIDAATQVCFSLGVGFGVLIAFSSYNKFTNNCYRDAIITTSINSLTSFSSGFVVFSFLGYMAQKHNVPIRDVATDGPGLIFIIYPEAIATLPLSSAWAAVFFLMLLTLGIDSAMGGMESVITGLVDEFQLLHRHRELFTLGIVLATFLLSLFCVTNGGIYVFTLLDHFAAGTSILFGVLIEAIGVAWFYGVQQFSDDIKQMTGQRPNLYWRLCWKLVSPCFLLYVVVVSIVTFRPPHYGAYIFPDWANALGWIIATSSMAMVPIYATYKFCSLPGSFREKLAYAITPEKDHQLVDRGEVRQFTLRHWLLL

SMILES | Test 2 [1] | IC50 [2]
N#CCCCCN1CCN(CCOC(c2ccc(F)cc2)c2ccc(F)cc2)CC1 [Example 4A, 1-[2-(bis-(4-fluorophenyl)-methoxy)-ethyl]-4-(4-cyanobutyl)-piperazine] | 2.4 mg/kg | 18 nM
Fc1ccc(C(OCCN2CCN(CCCc3ccccc3)CC2)c2ccc(F)cc2)cc1 [GBR 12909, 1-(2-(bis(4-fluorophenyl)-methoxy)-ethyl)-4-(3-phenyl-propyl) piperazine, reference compound] | 2.3 mg/kg | –
